Data taken from the NIST ThermoML archive (doi:10.1021/je034265f).
Numbers after ± are expanded uncertainties. Each block holds one compound with its values, some of them ahead of it.

Test: activity coefficient (dimensionless); of the first substance listed, at infinite dilution; xn = mol fraction of the nth substance listed
Settings: Liquid, x1 = 0

- activity coefficient (249.97 K): 4.4 ± 0.1
- activity coefficient (270 K): 4.3 ± 0.1
- activity coefficient (290 K): 4.2 ± 0.1
- activity coefficient (310 K): 4.1 ± 0.1
- activity coefficient (330 K): 3.8 ± 0.1
Compound: CC(C)C [2-methylpropane] + CCC(C)O

- activity coefficient (250.01 K): 4.4 ± 0.1
- activity coefficient (270.04 K): 4.4 ± 0.1
- activity coefficient (290.01 K): 4.3 ± 0.1
- activity coefficient (310.01 K): 4.3 ± 0.1
- activity coefficient (330 K): 4.1 ± 0.1
Compound: CC(C)C [2-methylpropane] + CCCCO

- activity coefficient (249.99 K): 3.7 ± 0.1
- activity coefficient (270 K): 3.5 ± 0.1
- activity coefficient (290 K): 3.4 ± 0.1
- activity coefficient (310 K): 3.2 ± 0.1
- activity coefficient (330 K): 3 ± 0.1
Compound: C=C(C)C [2-methylpropene] + CCC(C)O

- activity coefficient (250.01 K): 3.4 ± 0.1
- activity coefficient (270.04 K): 3.4 ± 0.1
- activity coefficient (290.01 K): 3.4 ± 0.1
- activity coefficient (310.01 K): 3.3 ± 0.1
- activity coefficient (330 K): 3.2 ± 0.1
Compound: C=C(C)C [2-methylpropene] + CCCCO

- activity coefficient (249.97 K): 3.6 ± 0.1
- activity coefficient (269.99 K): 3.5 ± 0.1
- activity coefficient (290 K): 3.5 ± 0.1
- activity coefficient (310 K): 3.5 ± 0.1
- activity coefficient (330 K): 3.3 ± 0.1
Compound: CCC [propane] + CCC(C)O

- activity coefficient (250.01 K): 3.6 ± 0.1
- activity coefficient (270 K): 3.6 ± 0.1
- activity coefficient (290.01 K): 3.6 ± 0.1
- activity coefficient (310 K): 3.6 ± 0.1
- activity coefficient (330 K): 3.6 ± 0.1
Compound: CCC [propane] + CCCCO

More lines, now with the values behind:

Compound: C=CC=C [1,3-butadiene] + CCC(C)O
- activity coefficient (249.99 K): 3.5 ± 0.1
- activity coefficient (270 K): 3.4 ± 0.1
- activity coefficient (290 K): 3.2 ± 0.1
- activity coefficient (310 K): 3 ± 0.1
- activity coefficient (330 K): 2.8 ± 0.1

Compound: C=CC=C [1,3-butadiene] + CCCCO
- activity coefficient (250.01 K): 3 ± 0.1
- activity coefficient (270.04 K): 2.9 ± 0.1
- activity coefficient (290.01 K): 2.9 ± 0.1
- activity coefficient (310.01 K): 2.9 ± 0.1
- activity coefficient (330 K): 2.8 ± 0.1

Compound: C=CCC [1-butene] + CCC(C)O
- activity coefficient (249.97 K): 3.7 ± 0.1
- activity coefficient (269.99 K): 3.6 ± 0.1
- activity coefficient (290 K): 3.5 ± 0.1
- activity coefficient (310 K): 3.3 ± 0.1
- activity coefficient (330 K): 3.1 ± 0.1

Compound: C=CCC [1-butene] + CCCCO
- activity coefficient (250.01 K): 3.5 ± 0.1
- activity coefficient (270 K): 3.4 ± 0.1
- activity coefficient (290.01 K): 3.4 ± 0.1
- activity coefficient (310 K): 3.3 ± 0.1
- activity coefficient (330 K): 3.2 ± 0.1

Compound: C/C=C/C [(E)-2-butene] + CCC(C)O
- activity coefficient (249.97 K): 3.7 ± 0.1
- activity coefficient (269.99 K): 3.6 ± 0.1
- activity coefficient (290 K): 3.5 ± 0.1
- activity coefficient (310 K): 3.3 ± 0.1
- activity coefficient (330 K): 3.1 ± 0.1

Compound: C/C=C/C [(E)-2-butene] + CCCCO
- activity coefficient (250.01 K): 3.4 ± 0.1
- activity coefficient (270 K): 3.4 ± 0.1
- activity coefficient (290.01 K): 3.4 ± 0.1
- activity coefficient (310 K): 3.3 ± 0.1
- activity coefficient (330 K): 3.3 ± 0.1

Compound: CCCC [butane] + CCC(C)O
- activity coefficient (249.96 K): 4.2 ± 0.1
- activity coefficient (270 K): 4.1 ± 0.1
- activity coefficient (290 K): 4 ± 0.1
- activity coefficient (310 K): 3.9 ± 0.1
- activity coefficient (330 K): 3.6 ± 0.1

Compound: CCCC [butane] + CCCCO
- activity coefficient (250.01 K): 4.1 ± 0.1
- activity coefficient (270.04 K): 4.1 ± 0.1
- activity coefficient (290.01 K): 4.1 ± 0.1
- activity coefficient (310.01 K): 4 ± 0.1
- activity coefficient (330 K): 3.9 ± 0.1

Compound: C=CC [propene] + CCC(C)O
- activity coefficient (249.97 K): 3.1 ± 0.1
- activity coefficient (269.99 K): 3.1 ± 0.1
- activity coefficient (290 K): 3.1 ± 0.1
- activity coefficient (310 K): 3 ± 0.1
- activity coefficient (330 K): 2.8 ± 0.1

Compound: C=CC [propene] + CCCCO
- activity coefficient (249.99 K): 3 ± 0.1
- activity coefficient (270 K): 3 ± 0.1
- activity coefficient (290.01 K): 3 ± 0.1
- activity coefficient (310 K): 3 ± 0.1
- activity coefficient (330 K): 3 ± 0.1
